Format in all cases: functional
Experiment [1] has as its system Trypanosoma cruzi. The experiment is described as follows: Compound was evaluated for its percent inhibition of thymidine incorporation in Trypanosoma cruzi without killing the cells at 25 degree Celsius and 100 uM/L. Background: Uptake of a labelled nucleoside into DNA is a usual measure of proliferation.
For experiment [2], the system named is Trypanosoma cruzi. Put plainly: Compound was evaluated for its percent inhibition of growth of Trypanosoma cruzi at of 50 uM/L.
Experiment [3] has as its system Trypanosoma cruzi. Put plainly: Compound was evaluated for its percent inhibition of thymidine incorporation in Trypanosoma cruzi without killing the cells at 25 degree Celsius and 50 uM/L.
For experiment [4], the system named is Trypanosoma cruzi. Put plainly: Compound was evaluated for its percent inhibition of growth of Trypanosoma cruzi at 100 uM/L.
The test system of experiment [5] is Trypanosoma cruzi. Put plainly: Compound was evaluated for its percent inhibition for thymidine incorporation in Trypanosoma cruzi without killing the cells at 25 degree Celsius and 17 uM/L.

`COC(=O)OCCC/C=C(\C)CCC=C(C)C`: the figures for the Inhibition in the experiment with Trypanosoma cruzi [1] and in the experiment with Trypanosoma cruzi [3] were 95.3% and 66.3%, respectively. Also, 50 µM produced 41.3% inhibition in the experiment with Trypanosoma cruzi [2]. In the experiment on Trypanosoma cruzi [4], 100 µM produced 56% inhibition.
As to `C/C=C\CC/C(C)=C/CCC(C)OC(=O)OCC(C)C` (stereo unspecified), the results for the Inhibition with Trypanosoma cruzi [1] and in the experiment with Trypanosoma cruzi [3] were 89.6% and 70.1%, respectively. Also, the inhibition (in general, the drop in the measured response relative to a control, in per cent) at 50 µM in the experiment with Trypanosoma cruzi [2] turned out to be 47.6%. The same compound came in with an inhibition at 100 µM with Trypanosoma cruzi [4] of 75.4%.
For `COC(=O)OC/C=C(\C)CC/C=C(\C)CCC1OC1(C)C` (stereo unspecified), the results for the Inhibition in the experiment with Trypanosoma cruzi [1] and in the experiment on Trypanosoma cruzi [3] were 46.3% and 25.7%, respectively. Moreover, the inhibition at 50 µM with Trypanosoma cruzi [2] was 44.8%. Further, in the experiment on Trypanosoma cruzi [4], the inhibition at 100 µM was found to be 62.8%.
For `CC(C)=CCC/C(C)=C/CCCOC(=O)OCC(C)C`, the figures for the Inhibition in the experiment with Trypanosoma cruzi [1], in the experiment on Trypanosoma cruzi [5] and in the experiment on Trypanosoma cruzi [3] were 100.1%, 50.6% and 88.4%, respectively. The same compound had an inhibition at 50 µM with Trypanosoma cruzi [2] of 57.3%. In the experiment on Trypanosoma cruzi [4], this compound gave an inhibition at 100 µM of 94%.
With `CC/C(C)=C\CC/C(C)=C/CCC(C)OC(=O)OCC(C)C` (stereo unspecified), the values for the Inhibition in the experiment with Trypanosoma cruzi [1] and in the experiment with Trypanosoma cruzi [3] were 70.8% and 62.8%, respectively. The compound also returned an inhibition at 50 µM in the experiment with Trypanosoma cruzi [2] of 56.6%. In the experiment on Trypanosoma cruzi [4], this compound returned an inhibition at 100 µM of 68%.
Consider `CCSC(=O)OC(C)CC/C=C(\C)CC/C=C(/C)CC` (stereo unspecified), for which the Inhibition (commonly the change of the read-out against control, counted positive when it falls) with Trypanosoma cruzi [1] is given as 75.2%; with Trypanosoma cruzi [3] it was 65.3%. The same compound returned an inhibition at 50 µM in the experiment with Trypanosoma cruzi [2] of 50.7%. For the same compound, in the experiment on Trypanosoma cruzi [4], the inhibition at 100 µM amounted to 79.4%.
For `CC(C)=CCC/C(C)=C/CCC(C)OC(=O)OCC(C)C` (stereo unspecified) the same measures were 95.8%, 73.3%, 70.8% and 89.6%.
For `COC(=O)OC(C)CC/C=C(\C)CCC=C(C)C` (stereo unspecified) the same measures were 91.6%, 75.6%, 51% and 97.5%.
For `CC(C)(C)OC(=O)CC(O)COc1ccc(Oc2ccccc2)cc1` (stereo unspecified) the same measures were 93.5%, 70.6%, 67.2% and 98.8%.
On to `C=CCOc1ccc(Oc2ccccc2)cc1`, for which the results for the Inhibition in the experiment on Trypanosoma cruzi [1] and with Trypanosoma cruzi [3] were 83.9% and 60.9%, respectively. Besides, in the experiment with Trypanosoma cruzi [2], the inhibition at 50 µM is 80.8%. The compound further registered an inhibition at 100 µM in the experiment with Trypanosoma cruzi [4] of 95.4%.
For `COC(C)(C)CCCC(C)C/C=C/C(C)=C/C(=O)OC(C)C` (stereo unspecified), the results for the Inhibition in the experiment with Trypanosoma cruzi [1] and with Trypanosoma cruzi [3] were 86.5% and 70.5%, respectively. In addition, the inhibition at 50 µM in the experiment with Trypanosoma cruzi [2] worked out at 60%. The same compound returned an inhibition at 100 µM in the experiment on Trypanosoma cruzi [4] of 92.5%.
For `C/C(=C\CCC(C)OC(=O)OCC(C)C)CCC1OC1(C)C` (stereo unspecified) the same measures were 70%, 50.8%, 33.4% and 68%.
For `CCSC(=O)OC/C=C(\C)CC/C=C(\C)CCC=C(C)C`, the Inhibition worked out at 72.6% in the experiment on Trypanosoma cruzi [1] and 57.9% with Trypanosoma cruzi [3]. The same compound registered an inhibition at 50 µM with Trypanosoma cruzi [2] of 69.3%. Further, the inhibition at 100 µM in the experiment on Trypanosoma cruzi [4] stood at 94.2%.
`c1ccc(Oc2ccc(OCCOC3CCCCO3)cc2)cc1` (stereo unspecified): the Inhibition in the experiment on Trypanosoma cruzi [1] came out at 86.2%; with Trypanosoma cruzi [3], 40.8%. Testing at 50 µM with Trypanosoma cruzi [2] gave an inhibition of 57%. The compound also returned an inhibition at 100 µM in the experiment on Trypanosoma cruzi [4] of 90.6%.
In the case of `CCSC(=O)OC/C=C(\C)CC/C=C(\C)CCC1OC1(C)C` (stereo unspecified), the values for the Inhibition with Trypanosoma cruzi [1] and with Trypanosoma cruzi [3] were 95.6% and 80.7%, respectively. The same compound showed an inhibition at 50 µM with Trypanosoma cruzi [2] of 90.7%. In the experiment on Trypanosoma cruzi [4], this compound gave an inhibition at 100 µM of 99%.

For the origin of these results see ChEMBL document CHEMBL1125964, “Synthesis and biological activivity of juvenele hormone analogues (JHA) for Trypanosoma cruzi” (1991).
